Measured values: the NIST ThermoML archive (doi:10.1016/j.tca.2004.12.015)
Where “and” joins values, the source holds several entries; their conditions need not be identical. Equal entries are not always repeated.

Test: molar heat capacity at constant pressure
Conditions: 101.33 kPa, Vacuum adiabatic calorimetry

N#CCCNc1ccccc1 [3-anilinopropanenitrile]
Conditions | molar heat capacity at constant pressure
83 K, Crystal 2 | 52.6 J/K/mol
83.11 K, Crystal 2 | 52.8 J/K/mol
85.94 K, Crystal 2 | 53.3 J/K/mol
88 K, Crystal 2 | 53.8 J/K/mol
88.94 K, Crystal 2 | 54.1 J/K/mol
91.87 K, Crystal 2 | 55.3 J/K/mol
93 K, Crystal 2 | 55 J/K/mol
94.73 K, Crystal 2 | 54.7 J/K/mol
97.54 K, Crystal 2 | 55.3 J/K/mol
98 K, Crystal 2 | 56 J/K/mol
100.3 K, Crystal 2 | 55.4 J/K/mol
103 K, Crystal 2 | 57 J/K/mol
103.01 K, Crystal 2 | 56 J/K/mol
105.67 K, Crystal 2 | 57.9 J/K/mol
108 K, Crystal 2 | 57.6 J/K/mol
108.29 K, Crystal 2 | 58.1 J/K/mol
110.86 K, Crystal 2 | 58.6 J/K/mol
113 K, Crystal 2 | 58.4 J/K/mol
113.39 K, Crystal 2 | 59.7 J/K/mol
115.91 K, Crystal 2 | 59.1 J/K/mol
118 K, Crystal 2 | 59.1 J/K/mol
118.39 K, Crystal 2 | 59.9 J/K/mol
120.86 K, Crystal 2 | 59.7 J/K/mol
123 K, Crystal 2 | 60.1 J/K/mol
123.29 K, Crystal 2 | 60.2 J/K/mol
125.69 K, Crystal 2 | 61.3 J/K/mol
128 K, Crystal 2 | 61.3 J/K/mol
128.08 K, Crystal 2 | 61.2 J/K/mol
130.44 K, Crystal 2 | 61.4 J/K/mol
132.78 K, Crystal 2 | 62 J/K/mol
133 K, Crystal 2 | 62.6 J/K/mol
135.1 K, Crystal 2 | 62.8 J/K/mol
137.39 K, Crystal 2 | 63.4 J/K/mol
138 K, Crystal 2 | 64.3 J/K/mol
139.66 K, Crystal 2 | 64.3 J/K/mol
141.91 K, Crystal 2 | 65 J/K/mol
143 K, Crystal 2 | 66 J/K/mol
144.13 K, Crystal 2 | 67.1 J/K/mol
146.35 K, Crystal 2 | 66.9 J/K/mol
148 K, Crystal 2 | 67.8 J/K/mol
148.54 K, Crystal 2 | 67.5 J/K/mol
150.73 K, Crystal 2 | 68.2 J/K/mol
152.89 K, Crystal 2 | 68.6 J/K/mol
153 K, Crystal 2 | 69.6 J/K/mol
155.03 K, Crystal 2 | 69.6 J/K/mol
157.16 K, Crystal 2 | 70.4 J/K/mol
158 K, Crystal 2 | 71.3 J/K/mol
159.28 K, Crystal 2 | 71.7 J/K/mol
161.38 K, Crystal 2 | 72.6 J/K/mol
163 K, Crystal 2 | 73.1 J/K/mol
163.47 K, Crystal 2 | 73 J/K/mol
165.54 K, Crystal 2 | 73.7 J/K/mol
167.59 K, Crystal 2 | 74.3 J/K/mol
168 K, Crystal 2 | 74.7 J/K/mol
169.63 K, Crystal 2 | 75.2 J/K/mol
171.66 K, Crystal 2 | 76 J/K/mol
173 K, Crystal 2 | 76.2 J/K/mol
173.68 K, Crystal 2 | 77 J/K/mol
175.7 K, Crystal 2 | 77.8 J/K/mol
177.67 K, Crystal 2 | 78.2 J/K/mol
178 K, Crystal 2 | 77.8 J/K/mol
179.65 K, Crystal 2 | 78.9 J/K/mol
181.61 K, Crystal 2 | 79.9 J/K/mol
183 K, Crystal 2 | 79.5 J/K/mol
183.57 K, Crystal 2 | 81.2 J/K/mol
185.51 K, Crystal 2 | 81.6 J/K/mol
187.45 K, Crystal 2 | 82.1 J/K/mol
188 K, Crystal 2 | 81.5 J/K/mol
189.37 K, Crystal 2 | 83 J/K/mol
191.29 K, Crystal 2 | 84 J/K/mol
193 K, Crystal 2 | 84 J/K/mol
193.19 K, Crystal 2 | 84 J/K/mol
195.09 K, Crystal 2 | 84.8 J/K/mol
196.97 K, Crystal 2 | 84.8 J/K/mol
198 K, Crystal 2 | 86.5 J/K/mol
198.84 K, Crystal 2 | 86.5 J/K/mol
200.68 K, Crystal 2 | 88.1 J/K/mol
202.52 K, Crystal 2 | 88.1 J/K/mol
203 K, Crystal 2 | 89.8 J/K/mol
204.36 K, Crystal 2 | 90.6 J/K/mol
206.19 K, Crystal 2 | 92.3 J/K/mol
208 K, Crystal 2 | 94 J/K/mol
208.02 K, Crystal 2 | 93.1 J/K/mol
209.84 K, Crystal 2 | 94.8 J/K/mol
211.66 K, Crystal 2 | 96.4 J/K/mol
213 K, Crystal 2 | 98.9 J/K/mol
213.46 K, Crystal 2 | 97.3 J/K/mol
215.26 K, Crystal 2 | 98.9 J/K/mol
217.05 K, Crystal 2 | 101 J/K/mol
218 K, Crystal 2 | 105 J/K/mol
218.84 K, Crystal 2 | 102 J/K/mol
220.61 K, Crystal 2 | 105 J/K/mol
222.38 K, Crystal 2 | 107 J/K/mol
223 K, Crystal 2 | 111 J/K/mol
224.14 K, Crystal 2 | 111 J/K/mol
225.88 K, Crystal 2 | 112 J/K/mol
227.6 K, Crystal 2 | 116 J/K/mol
228 K, Crystal 2 | 118 J/K/mol
229.29 K, Crystal 2 | 121 J/K/mol
230.95 K, Crystal 2 | 124 J/K/mol
232.59 K, Crystal 2 | 126 J/K/mol
233 K, Crystal 2 | 125 J/K/mol
234.22 K, Crystal 2 | 129 J/K/mol
235.85 K, Crystal 2 | 131 J/K/mol
237.47 K, Crystal 2 | 132 J/K/mol
238 K, Crystal 2 | 132 J/K/mol
239.08 K, Crystal 2 | 136 J/K/mol
240.67 K, Crystal 2 | 140 J/K/mol
242.24 K, Crystal 2 | 141 J/K/mol
243 K, Crystal 2 | 139 J/K/mol
243.78 K, Crystal 2 | 144 J/K/mol
245.31 K, Crystal 2 | 146 J/K/mol
246.85 K, Crystal 2 | 146 J/K/mol
248 K, Crystal 2 | 146 J/K/mol
248.39 K, Crystal 2 | 147 J/K/mol
249.91 K, Crystal 2 | 148 J/K/mol
251.45 K, Crystal 2 | 149 J/K/mol
252.99 K, Crystal 2 | 150 J/K/mol
253 K, Crystal 2 | 151 J/K/mol
254.53 K, Crystal 2 | 150 J/K/mol
256.06 K, Crystal 2 | 150 J/K/mol
257.59 K, Crystal 2 | 151 J/K/mol
258 K, Crystal 2 | 156 J/K/mol
259.11 K, Crystal 2 | 153 J/K/mol
260.62 K, Crystal 2 | 155 J/K/mol
262.12 K, Crystal 2 | 156 J/K/mol
263 K, Crystal 2 | 160 J/K/mol
263.62 K, Crystal 2 | 158 J/K/mol
265.1 K, Crystal 2 | 158 J/K/mol
266.58 K, Crystal 2 | 160 J/K/mol
268 K, Crystal 2 | 161 J/K/mol
268.05 K, Crystal 2 | 160 J/K/mol
269.52 K, Crystal 2 | 161 J/K/mol
270.98 K, Crystal 2 | 161 J/K/mol
272.44 K, Crystal 2 | 161 J/K/mol
273 K, Crystal 2 | 162 J/K/mol
273.9 K, Crystal 2 | 162 J/K/mol
275.36 K, Crystal 2 | 163 J/K/mol
276.81 K, Crystal 2 | 163 J/K/mol
278 K, Crystal 2 | 162 J/K/mol
278.26 K, Crystal 2 | 164 J/K/mol
279.7 K, Crystal 2 | 164 J/K/mol
281.13 K, Crystal 2 | 165 J/K/mol
282.56 K, Crystal 2 | 165 J/K/mol
283 K, Crystal 2 | 162 J/K/mol
283.98 K, Crystal 2 | 165 J/K/mol
285.41 K, Crystal 2 | 165 J/K/mol
286.82 K, Crystal 2 | 165 J/K/mol
288 K, Crystal 2 | 164 J/K/mol
288.23 K, Crystal 2 | 165 J/K/mol
289.63 K, Crystal 2 | 166 J/K/mol
291.02 K, Crystal 2 | 166 J/K/mol
292.39 K, Crystal 2 | 167 J/K/mol
293 K, Crystal 2 | 168 J/K/mol
293.74 K, Crystal 2 | 169 J/K/mol
295.08 K, Crystal 2 | 170 J/K/mol
296.42 K, Crystal 2 | 171 J/K/mol
297.76 K, Crystal 2 | 174 J/K/mol
298.15 K, Crystal 2 | 179 J/K/mol
299.09 K, Crystal 2 | 177 J/K/mol
300.41 K, Crystal 2 | 180 J/K/mol
301.72 K, Crystal 2 | 185 J/K/mol
303 K, Crystal 2 | 192 J/K/mol and 196 J/K/mol
304.27 K, Crystal 2 | 201 J/K/mol
305 K, Crystal 2 | 206 J/K/mol
305.5 K, Crystal 2 | 213 J/K/mol
306.69 K, Crystal 2 | 231 J/K/mol
307.82 K, Crystal 2 | 260 J/K/mol
308.85 K, Crystal 2 | 301 J/K/mol
309.78 K, Crystal 2 | 355 J/K/mol
310.63 K, Crystal 2 | 390 J/K/mol
311.5 K, Crystal 1 | 329 J/K/mol
312.51 K, Crystal 1 | 280 J/K/mol
313.55 K, Crystal 1 | 303 J/K/mol
314.54 K, Crystal 1 | 330 J/K/mol
315.48 K, Crystal 1 | 365 J/K/mol
316.35 K, Crystal 1 | 410 J/K/mol
317.16 K, Crystal 1 | 466 J/K/mol
317.89 K, Crystal 1 | 538 J/K/mol
318.55 K, Crystal 1 | 629 J/K/mol
319.14 K, Crystal 1 | 738 J/K/mol
319.66 K, Crystal 1 | 865 J/K/mol
320.12 K, Crystal 1 | 1014 J/K/mol
320.52 K, Crystal 1 | 1189 J/K/mol
320.86 K, Crystal 1 | 1380 J/K/mol
321.16 K, Crystal 1 | 1596 J/K/mol
321.42 K, Crystal 1 | 1846 J/K/mol
321.65 K, Crystal 1 | 2037 J/K/mol
321.85 K, Crystal 1 | 2361 J/K/mol
322.03 K, Crystal 1 | 2644 J/K/mol
322.19 K, Crystal 1 | 2885 J/K/mol
322.33 K, Crystal 1 | 3118 J/K/mol
322.45 K, Crystal 1 | 3359 J/K/mol
322.56 K, Crystal 1 | 3742 J/K/mol
322.66 K, Crystal 1 | 4116 J/K/mol
322.75 K, Crystal 1 | 4448 J/K/mol
322.83 K, Crystal 1 | 4648 J/K/mol
322.9 K, Crystal 1 | 5022 J/K/mol
322.97 K, Crystal 1 | 5280 J/K/mol
323.03 K, Crystal 1 | 5513 J/K/mol
323.09 K, Crystal 1 | 5621 J/K/mol
323.15 K, Crystal 1 | 6011 J/K/mol
323.2 K, Crystal 1 | 6386 J/K/mol
323.24 K, Crystal 1 | 6585 J/K/mol
323.29 K, Crystal 1 | 6627 J/K/mol
323.33 K, Crystal 1 | 6677 J/K/mol
323.37 K, Liquid | 6568 J/K/mol
323.42 K, Liquid | 6236 J/K/mol
323.46 K, Liquid | 5862 J/K/mol
323.5 K, Liquid | 5604 J/K/mol
323.55 K, Liquid | 5446 J/K/mol
323.59 K, Liquid | 5080 J/K/mol
323.64 K, Liquid | 4673 J/K/mol
323.69 K, Liquid | 4199 J/K/mol
323.73 K, Liquid | 3816 J/K/mol
323.78 K, Liquid | 3517 J/K/mol
323.83 K, Liquid | 2536 J/K/mol
324 K, Liquid | 1014 J/K/mol
324.78 K, Liquid | 242 J/K/mol
325 K, Liquid | 244 J/K/mol
325.93 K, Liquid | 245 J/K/mol
327.07 K, Liquid | 245 J/K/mol
328.2 K, Liquid | 246 J/K/mol
329.34 K, Liquid | 246 J/K/mol
330 K, Liquid | 247 J/K/mol
330.46 K, Liquid | 247 J/K/mol
331.59 K, Liquid | 247 J/K/mol
332.72 K, Liquid | 247 J/K/mol
333.84 K, Liquid | 247 J/K/mol
334.96 K, Liquid | 248 J/K/mol
335 K, Liquid | 249 J/K/mol
336.08 K, Liquid | 250 J/K/mol
337.19 K, Liquid | 251 J/K/mol
338.3 K, Liquid | 253 J/K/mol
339.4 K, Liquid | 254 J/K/mol
340 K, Liquid | 254 J/K/mol
340.5 K, Liquid | 255 J/K/mol
342.69 K, Liquid | 259 J/K/mol
343.77 K, Liquid | 262 J/K/mol
344.84 K, Liquid | 265 J/K/mol
345 K, Liquid | 266 J/K/mol
345.9 K, Liquid | 269 J/K/mol
346.95 K, Liquid | 273 J/K/mol
348.01 K, Liquid | 278 J/K/mol
349.04 K, Liquid | 284 J/K/mol
350 K, Liquid | 288 J/K/mol
351.08 K, Liquid | 294 J/K/mol
352.08 K, Liquid | 300 J/K/mol
353 K, Liquid | 308 J/K/mol
353.07 K, Liquid | 309 J/K/mol
